According to US20160146815A1, “METHOD FOR SCREEING CANCER METASTASIS INHIBITOR USING CULTURE OF CELLS OR SPHEROIDICALLY AGGREGATED CELLS IN WHICH LYSYL-TRNA SYNTHETASE IS REGULATED TO BE EXPRESSED OR UNEXPRESSED” (Medicinal Bioconvergence Research Center, priority 2013, published 2016):
Entries after “also recorded” stand apart in the source; their conditions may differ.

Tests used:
HCT116 parental cells [1] = conditions: U0126 50 or 100 μM, 24 hours; vs control not treated
Method: Particularly, the HCT116 parental cells cultured in a three-dimensional collagen gel environment were either not treated with U0126 or treated with U0126, the ERKs inhibitor, at the concentration of 50 or 100 μM, followed by culture for 24 hours.

HCT116 cells = test: CK14 immunostaining of spheroids in three-dimensional collagen gel; type: cell-based, human; conditions: U0126 (50 mM) or YH16899 (50 mM), a day, KRS expressing cells
From the text: In a three-dimensional collagen gel environment, the dissemination of cells was KRS expression-dependent, and the expressions of epithelial markers involved in cell-cell contact were reduced in the KRS knock-out cell lines. However in the KRS knock-out cell lines, the cell scattering was not observed in a two-dimensional culture environment and the dissemination was not observed in a three-dimensional collagen gel environment. So, in order to confirm whether or not the dissemination of cells from the spheroidically aggregated cells of KRS knock-out cell line in a three-dimensional collagen gel environment was attributed to the expression of epithelial marker, the cell line was cultured in a three-dimensional collagen gel environment for 24 hours. When the dissemination was observed, CK14 staining was performed and the cells were observed under confocal microscope.
Particularly, the collagen gel containing cells were distributed in PDMS, which was treated with nothing for a day (FIG. 9A) or treated with U0126 (50 mM) or YH16899 (50 mM) (FIG. 9B). The collagen gel containing the cultured cells was fixed in 4% paraformaldehyde for 30 minutes, which was then treated with 30 mM glycine for 30 minutes. Then, permeabilization was induced by using 0.5% triton X-100 for 30 minutes, followed by blocking with 3% BSA solution for 2 hours. […]

HCT116 parental cells [2] = test: Western blotting of signaling factors in spheroidically aggregated cells in three-dimensional collagen gel; type: cell-based, human; conditions: for phosphorylation of FAK / expression of E-cadherin / expression of paxillin / expression of β-catenin / phosphorylation of ERKs / phosphorylation of paxillin: 50 and 100 μM, three-dimensional collagen gel, Western blotting; for phosphorylation of FAK: a day (24 hours); for expression of E-cadherin / expression of paxillin / expression of β-catenin / phosphorylation of ERKs / phosphorylation of paxillin: a day
Method: Whole cell extract was collected, followed by Western blotting by the same manner as described in Example <7-2>. At this time, the primary antibodies of pY397FAK, FAK, p-ERKs, ERKs, pY118paxillin, paxillin, E-cadherin, β-catenin, KRS, α-tubulin, pAkt1/2/3, and caspase 3 were used.
SDS, Na3O4V, and protease inhibitor cocktails (GenDepot) were added to lysis buffer, followed by reaction at 4° C. for at least 1 hour. Centrifugation was performed at 4° C., at 13000 rpm, for 30 minutes. The supernatant was transferred into a new microcentrifuge tube. 4×SDS-PAGE sample buffer was added thereto, followed by boiling at 100° C. for 5 minutes. The extract was quantified by Western blotting using α-tubulin antibody (Sigma). Other protein expressions and phosphorylations were also measured by Western blotting.

[3] = test system: colorectal cancer cell line SW620; test: Dissemination of cells from SW620 spheroids in three-dimensional collagen gel (time-lapse imaging); type: cell-based, human; conditions: SW620 parental cells treated with U0126 or YH16899
From the text: Various colorectal cancer cell lines (SW620, HCT15, SNU977, KM12SM, and SNU-05) were stably transfected with shKRS to suppress KRS expression (clones #2 and #5). Then, the dissemination was observed under time-lapse microscope (FIG. 17A) or the signaling activity was investigated after the treatment of YH16899 (FIG. 17B).
Particularly, the colorectal cancer cell lines SW620, HCT15, SNU977, KM12SM, and SNU-05 (Korean Cell Line Bank, Cancer Research Institute, Seoul National University) were distributed in a three-dimensional collagen gel environment as spheroids, followed by time-lapse imaging 6 hours later or followed by normal culture in a two-dimensional environment supplemented with 10% serum for 2 days. Then, lysis buffer (50 mM Tris-HCl, pH7.4, 1% NP-40, 0.25% sodium deoxycholate, 150 mM NaCl, 1 mM EDTA) was added thereto, followed by lysis to obtain cell lysate. The protein in the obtained cell lysate was quantified, followed by Western blotting with the labeled factors.

HCT116 spheroid cells = test: Immunostaining of p-ERKs and paxillin in spheroids in three-dimensional collagen gel (confocal microscope); type: cell-based, human; conditions: U0126 (50 mM) or YH16899 (50 mM), a day
Method: Particularly, collagen type I was distributed in PDMS, which was treated with nothing for a day (FIG. 6A and FIG. 6B) or treated with U0126 (50 mM) or YH16899 (50 mM) (FIG. 6C and FIG. 6D). Collagen gel containing the cultured cells was fixed in 4% formaldehyde for 30 minutes, followed by the treatment with 30 mM glycine for 30 minutes. Permeabilization was induced by using 0.5% triton X-100 for 30 minutes, followed by blocking with 3% BSA solution for 2 hours. The unlabeled p-ERKs (cell signaling) and paxillin (BD bioscience) antibodies were treated thereto at 4° C. at least 16˜18 hours, followed by the treatment with the secondary antibody for at least 4 hours at room temperature. At last, DAPI (4′,6-diamidino-2-phenylindole) solution was treated thereto in order to stain nuclei. The stained cells were observed under confocal microscope.

[4] = test system: HCT116 spheroidically aggregated cells; test: Dissemination of cells from spheroidically aggregated cells in three-dimensional collagen gel (time-lapse microscope); type: cell-based, human; conditions: HCT116 parental cells, U0126 50 μM, three-dimensional collagen gel, real-time live imaging
Method: Particularly, 2.5 mg/Ml of collagen containing cells was loaded in the magnetic 4-well chamber (Live Cell Instrument, Korea) for the culture system of time-lapse microscope, and the collagen was hardened in a 37° C. incubator for 30 minutes. When the collagen was fully solidified, PRMI-1640 supplemented with 10% FBS was added thereto. The magnetic chamber containing three-dimensional collagen gel and its corresponding adaptor were placed on the time-lapse microscope, followed by setting the multi-position. […] 5% CO2 incubator. Culture medium was added thereto every 6 hours in order for the collagen not to be dried. At this time, it is important to maintain the focus not to be changed. […]
As confirmed in the result of Example 14, when the HCT116 parental cells were treated with TGFβ1, the dissemination of cells from the spheroidically aggregated cells and migration thereof were observed. When the KRS knock-out cell line was treated with TGFβ1, the dissemination of cells was not observed. […] When the extracellular signal-regulated kinase (ERKs) inhibitor U0126 was treated to the HCT116 parental cells, it was presumed to be negative effect on the dissemination and migration of cells. To verify above, 50 μM of U0126, the ERKs inhibitor, was treated to the cell line, followed by observation of cell dissemination and migration by real-time live imaging of the spheroidically aggregated cells.

## N#CC(=C(/N)Sc1ccccc1N)/C(C#N)=C(\N)Sc1ccccc1N [U0126]
HCT116 parental cells [1]
  expression level of E-cadherin mRNA: significantly reduced
HCT116 cells
  CK14 expression: significantly suppressed
HCT116 cells; listed as U1026
  CK14 expression: low and very low
HCT116 parental cells [2]
  phosphorylation of FAK: suppressed
  expression of E-cadherin: reduced
  expression of paxillin: reduced
  expression of β-catenin: reduced
  phosphorylation of ERKs: suppressed
  phosphorylation of paxillin: reduced; also recorded: suppressed
HCT116 parental cells [2]; listed as ERKs inhibitor
  phosphorylation of FAK: significantly reduced
  expression of E-cadherin: significantly reduced
  expression of paxillin: significantly reduced
  phosphorylation of paxillin: significantly reduced
HCT116 parental cells [2]; listed as U1026
  expression of E-cadherin: decreased
  expression of paxillin: inhibited
  expression of β-catenin: decreased
  phosphorylation of ERKs: inhibited
  phosphorylation of paxillin: inhibited
HCT116 parental cells [2]; HCT116 cell line in three-dimensional collagen gel, FIG. 18 legend
  expression of the epithelial marker: increased
[3]
  dissemination of cells from the three-dimensional spheroid cells: not observed
HCT116 spheroid cells
  ERKs phosphorylation level (p-ERKs immunostaining): inhibited significantly; also recorded: very low
  paxillin immunostaining level (paxillin expression): inhibited significantly; also recorded: significantly reduced
[4]
  dissemination and migration of cells from the spheroid: suppression
[4]; listed as ERKs inhibitor
  dissemination and migration of cells from the spheroid: did not cause cell migration and dissemination; also recorded: not induced
[4]; listed as ERKs inhibitors
  dissemination and migration of cells from the spheroid: inhibited
[4]; listed as U1026
  dissemination and migration of cells from the spheroid: inhibited
